Experimental data as given in ChEMBL document CHEMBL1201862, “PubChem BioAssay data set” (2004).
Calls of active or inactive are those of the source.

Tests used:
[1] = intracellular Trypanosoma cruzi inhibitors in host cells – cell-based, plate reader, cherry-pick samples, set 3, dose response (AID 651818); format: functional;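 further: compounds incubated with infected cells for about four days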
[2] = THP-1 cell cytotoxicity, dose response, cytotoxicity control for non-replicating M. tuberculosis project (AID 489025); format: functional
[3] = Vero E6 cell cytotoxicity, dose response, cytotoxicity control for non-replicating M. tuberculosis project, secondary assay (AID 492998); format: functional, VeroE6; conditions: Vero C1008
[4] = cells; format: functional
[5] = P. falciparum Dd2 growth inhibitors, dose response, SYBR Green, cherry-picked samples (AID 1159567); format: functional, cell-based
[6] = HepG2 cell cytotoxicity, dose response, cytotoxicity control, cherry-picked samples (AID 1159577); format: functional, cell-based
[7] = inhibitors of intracellular T. cruzi replication, confirmation, NIH3T3 host cells, beta-gal luminescence (AID 2044); format: functional, cell-based;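 further: intracellular parasites grown in NIH/3T3 mouse fibroblasts as host cells; luminescent beta-galactosidase reporter signal from transgenic T. cruzi replicating inside host cells; inhibitors lower the luminescence signal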
[8] = cytotoxicity toward NIH3T3 fibroblasts, dose response, counter-screen, cell-based, ATP luminescence, mouse fibroblasts (AID 2010); format: functional;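 further: cells exposed to compound for about 90 hours before reading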
[9] = biological target: T1, Heat shock factor protein 1 (Mus musculus, UniProt P38532); assay: HSF1 potentiators in luciferase reporter cells, confirmation, cell-based, NIH3T3, luminescence, dose retest (AID 435004); format: functional;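 further: stress induced by proteasome inhibitor MG132 added 30 min after compound; luciferase reporter driven by HSF1 response element in NIH3T3 cells; actives raise luminescence as potentiators of the MG132 stress response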
T1 sequence (P38532 whole entry): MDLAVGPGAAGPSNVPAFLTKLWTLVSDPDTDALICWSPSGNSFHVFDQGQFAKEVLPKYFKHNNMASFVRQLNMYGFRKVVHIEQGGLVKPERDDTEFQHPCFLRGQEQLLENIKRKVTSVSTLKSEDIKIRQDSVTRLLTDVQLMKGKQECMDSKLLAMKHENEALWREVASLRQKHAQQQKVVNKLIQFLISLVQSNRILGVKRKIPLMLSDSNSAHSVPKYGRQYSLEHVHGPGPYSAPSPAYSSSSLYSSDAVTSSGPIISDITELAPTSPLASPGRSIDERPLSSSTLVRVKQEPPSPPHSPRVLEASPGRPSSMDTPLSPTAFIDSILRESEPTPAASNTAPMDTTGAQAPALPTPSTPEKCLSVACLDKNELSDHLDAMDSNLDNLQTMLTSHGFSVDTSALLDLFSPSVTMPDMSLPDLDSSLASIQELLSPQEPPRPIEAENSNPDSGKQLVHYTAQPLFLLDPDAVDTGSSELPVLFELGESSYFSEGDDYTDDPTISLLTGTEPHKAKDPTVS

[10] = biological target: T2, Fatty acid synthase (Homo sapiens, UniProt P49327); assay: FAS thioesterase domain inhibitors, dose response, biochemical, endpoint fluorescence intensity, uHTS hits (AID 624327); format: functional;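 further: fluorescence from hydrolysis of an O-methyl fluorescein acyl ester substrate by the enzyme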
T2 sequence (P49327 whole entry, the tested form may be a part): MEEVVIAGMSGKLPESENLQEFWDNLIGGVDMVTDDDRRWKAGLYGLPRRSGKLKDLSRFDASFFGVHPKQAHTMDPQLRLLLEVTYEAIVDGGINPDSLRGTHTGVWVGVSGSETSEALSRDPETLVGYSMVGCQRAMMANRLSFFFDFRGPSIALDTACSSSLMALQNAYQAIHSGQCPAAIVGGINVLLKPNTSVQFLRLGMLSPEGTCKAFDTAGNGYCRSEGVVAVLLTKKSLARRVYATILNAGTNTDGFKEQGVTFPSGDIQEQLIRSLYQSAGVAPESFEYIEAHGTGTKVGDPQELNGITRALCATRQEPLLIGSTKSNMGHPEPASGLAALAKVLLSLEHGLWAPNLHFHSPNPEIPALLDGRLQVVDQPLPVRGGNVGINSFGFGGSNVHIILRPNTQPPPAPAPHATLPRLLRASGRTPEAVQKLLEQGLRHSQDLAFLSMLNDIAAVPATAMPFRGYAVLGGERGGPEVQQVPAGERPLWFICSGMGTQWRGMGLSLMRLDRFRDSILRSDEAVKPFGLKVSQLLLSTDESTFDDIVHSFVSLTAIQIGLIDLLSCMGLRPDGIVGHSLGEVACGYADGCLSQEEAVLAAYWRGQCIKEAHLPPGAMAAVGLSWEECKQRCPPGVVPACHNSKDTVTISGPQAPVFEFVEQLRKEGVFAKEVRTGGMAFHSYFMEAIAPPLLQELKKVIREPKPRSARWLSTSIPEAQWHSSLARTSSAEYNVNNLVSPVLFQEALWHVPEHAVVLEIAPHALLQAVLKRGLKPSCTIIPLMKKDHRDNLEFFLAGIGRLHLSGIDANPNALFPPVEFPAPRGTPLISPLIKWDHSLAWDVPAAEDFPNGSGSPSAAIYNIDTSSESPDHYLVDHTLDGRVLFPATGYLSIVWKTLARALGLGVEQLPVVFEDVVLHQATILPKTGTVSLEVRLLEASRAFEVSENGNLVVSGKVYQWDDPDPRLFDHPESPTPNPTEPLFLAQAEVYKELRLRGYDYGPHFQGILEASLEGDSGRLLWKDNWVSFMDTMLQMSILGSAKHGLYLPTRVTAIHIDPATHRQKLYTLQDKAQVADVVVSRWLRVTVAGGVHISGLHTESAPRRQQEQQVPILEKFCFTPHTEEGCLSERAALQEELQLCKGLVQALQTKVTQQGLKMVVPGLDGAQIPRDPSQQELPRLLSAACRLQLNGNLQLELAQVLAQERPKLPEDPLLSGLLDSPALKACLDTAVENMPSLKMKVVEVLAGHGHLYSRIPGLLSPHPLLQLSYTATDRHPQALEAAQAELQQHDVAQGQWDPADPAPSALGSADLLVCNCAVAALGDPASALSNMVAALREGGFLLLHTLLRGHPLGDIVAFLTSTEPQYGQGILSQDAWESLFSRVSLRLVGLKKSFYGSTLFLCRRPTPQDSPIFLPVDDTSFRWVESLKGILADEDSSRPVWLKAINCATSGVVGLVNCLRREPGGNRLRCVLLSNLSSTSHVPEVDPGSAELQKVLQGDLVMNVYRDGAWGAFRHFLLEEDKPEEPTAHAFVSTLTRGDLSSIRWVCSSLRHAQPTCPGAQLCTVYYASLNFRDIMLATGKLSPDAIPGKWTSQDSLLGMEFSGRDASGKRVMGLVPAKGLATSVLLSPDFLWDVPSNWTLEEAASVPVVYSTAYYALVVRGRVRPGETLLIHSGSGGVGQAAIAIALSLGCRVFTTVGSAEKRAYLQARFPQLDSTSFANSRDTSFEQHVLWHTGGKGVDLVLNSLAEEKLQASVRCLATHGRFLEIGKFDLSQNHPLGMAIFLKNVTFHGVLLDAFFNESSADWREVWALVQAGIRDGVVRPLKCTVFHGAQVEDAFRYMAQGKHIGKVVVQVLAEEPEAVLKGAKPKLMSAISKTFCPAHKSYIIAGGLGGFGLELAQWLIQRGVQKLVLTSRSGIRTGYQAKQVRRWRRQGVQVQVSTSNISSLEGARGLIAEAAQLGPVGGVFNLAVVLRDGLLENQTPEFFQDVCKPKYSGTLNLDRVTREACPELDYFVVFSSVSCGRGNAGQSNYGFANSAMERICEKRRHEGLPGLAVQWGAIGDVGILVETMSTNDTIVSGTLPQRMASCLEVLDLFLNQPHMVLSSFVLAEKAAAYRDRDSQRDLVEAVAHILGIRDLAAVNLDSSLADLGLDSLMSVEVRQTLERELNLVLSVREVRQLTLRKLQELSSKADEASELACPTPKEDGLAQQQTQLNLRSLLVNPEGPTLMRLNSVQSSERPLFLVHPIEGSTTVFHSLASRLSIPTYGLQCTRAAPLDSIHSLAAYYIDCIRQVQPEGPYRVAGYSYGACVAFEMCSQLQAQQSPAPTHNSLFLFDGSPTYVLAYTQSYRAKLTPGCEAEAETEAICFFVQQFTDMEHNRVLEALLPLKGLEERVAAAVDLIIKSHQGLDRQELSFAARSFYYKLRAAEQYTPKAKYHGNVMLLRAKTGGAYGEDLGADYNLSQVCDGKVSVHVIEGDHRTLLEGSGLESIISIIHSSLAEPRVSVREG

[11] = biological target: T2, Fatty acid synthase; assay: FAS thioesterase domain inhibitors, dose response, biochemical, kinetic fluorescence intensity (AID 624326); format: functional;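 further: rate of fluorescence rise from hydrolysis of a fluorogenic O-methyl fluorescein ester substrate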
[12] = biological target: T3, Leucine aminopeptidase (Plasmodium falciparum 3D7, UniProt Q8IL11); assay: P. falciparum M17LAP inhibitors, primary screen, biochemical, fluorogenic H-Leu-NHMec substrate, 1536-well (AID 1619); format: functional
T3 sequence (Q8IL11 whole entry): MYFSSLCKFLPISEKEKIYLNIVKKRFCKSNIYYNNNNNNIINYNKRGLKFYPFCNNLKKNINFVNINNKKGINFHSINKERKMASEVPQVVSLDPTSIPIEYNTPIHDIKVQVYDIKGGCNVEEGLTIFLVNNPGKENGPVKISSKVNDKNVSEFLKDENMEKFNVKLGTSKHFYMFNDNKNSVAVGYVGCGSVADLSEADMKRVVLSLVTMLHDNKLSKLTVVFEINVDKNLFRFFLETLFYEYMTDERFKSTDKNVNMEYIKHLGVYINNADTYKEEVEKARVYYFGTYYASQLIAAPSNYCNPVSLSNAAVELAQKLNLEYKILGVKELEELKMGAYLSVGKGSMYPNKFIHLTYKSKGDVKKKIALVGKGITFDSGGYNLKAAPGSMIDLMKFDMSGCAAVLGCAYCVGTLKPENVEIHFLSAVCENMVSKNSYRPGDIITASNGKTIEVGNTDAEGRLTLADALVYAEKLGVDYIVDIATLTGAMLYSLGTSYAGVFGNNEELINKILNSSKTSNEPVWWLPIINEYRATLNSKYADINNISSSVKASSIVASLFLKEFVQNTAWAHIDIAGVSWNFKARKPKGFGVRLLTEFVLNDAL

[13] = biological target: T1, Heat shock factor protein 1; assay: inhibition of MG132-induced HSE-luciferase signal, confirmation, cell-based, NIH3T3, luminescence, dose retest (AID 2382); format: functional;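 further: NIH3T3 fibroblasts with HSF1-driven luciferase reporter stressed by proteasome inhibitor MG132; luminescence from HSF1-driven luciferase expression after 8 hours of MG132 stress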
[14] = system: HEK293; assay: inhibitors of LMP1-driven NF-kB reporter, dose response, cell-based, HEK293, luciferase, cherry-pick (AID 588343); format: functional; conditions: Homo sapiens
[15] = system: INS1; assay: beta cell apoptosis inhibitors, cytokine rescue, dose response, luminescence, retest (AID 449756); format: functional, cell-based; conditions: Rattus norvegicus;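 further: cell death triggered by IL-1 beta plus TNF-alpha plus IFN-gamma mixture; protective hits raise ATP signal compared with cytokine alone wells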
[16] = biological target: T4, Calpain-2 catalytic subunit (Sus scrofa, UniProt P43367); assay: pig calpain II inhibitor potency, dose response, biochemical, fluorogenic peptide substrate (AID 1420); format: functional
T4 sequence (P43367 whole entry): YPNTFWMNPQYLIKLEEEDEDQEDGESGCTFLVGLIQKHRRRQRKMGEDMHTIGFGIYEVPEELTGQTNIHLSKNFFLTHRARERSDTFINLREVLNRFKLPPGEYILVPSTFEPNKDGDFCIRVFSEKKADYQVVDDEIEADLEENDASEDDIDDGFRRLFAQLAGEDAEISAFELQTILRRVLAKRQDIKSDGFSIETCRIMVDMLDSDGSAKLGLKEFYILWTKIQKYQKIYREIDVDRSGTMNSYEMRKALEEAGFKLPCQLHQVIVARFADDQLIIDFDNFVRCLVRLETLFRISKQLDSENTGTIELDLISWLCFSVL

[17] = biological target: Heat shock protein HSP 90-alpha (Homo sapiens, UniProt P07900); format: functional, organism-based
[18] = system: Streptococcus sp. 'group A'; assay: growth inhibition of control SK(-) GAS strain, dose response, counter-screen for streptokinase expression inhibitor project, luminescence, kanamycin, BacTiterGlo, confirmation (AID 1900); format: functional, organism-based
[19] = biological target: T5, Streptokinase A (Streptococcus pyogenes serotype M1, UniProt P10520); assay: S. pyogenes streptokinase expression inhibitors, potency, dose response, plasminogen activation absorbance, OD405 (AID 1914); format: functional, Streptococcus pyogenes M1 GAS;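 further: secreted streptokinase activity via plasminogen activation per viability signal from cell pellet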
T5 sequence (P10520 whole entry): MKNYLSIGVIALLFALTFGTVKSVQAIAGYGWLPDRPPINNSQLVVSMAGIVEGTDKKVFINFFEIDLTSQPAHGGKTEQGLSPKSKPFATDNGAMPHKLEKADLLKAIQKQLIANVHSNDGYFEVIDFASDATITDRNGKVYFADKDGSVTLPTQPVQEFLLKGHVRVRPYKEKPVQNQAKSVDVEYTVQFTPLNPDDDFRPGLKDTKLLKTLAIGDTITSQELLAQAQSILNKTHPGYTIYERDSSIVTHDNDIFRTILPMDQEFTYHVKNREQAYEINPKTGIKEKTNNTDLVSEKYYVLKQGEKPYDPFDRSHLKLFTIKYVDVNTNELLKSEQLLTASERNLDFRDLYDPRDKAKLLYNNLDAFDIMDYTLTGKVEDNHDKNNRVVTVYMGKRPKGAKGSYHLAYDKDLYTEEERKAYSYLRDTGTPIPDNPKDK

[20] = microbe, parasite or virus in culture; format: functional; conditions: Mycobacterium tuberculosis
[21] = system: Streptococcus; assay: Group A Streptococcus viability loss, dose response, counter-screen for streptokinase expression inhibitor project, luminescence, BacTiterGlo (AID 1915); format: functional, organism-based;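 further: potency for reduction of bacterial viability or growth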

## Cc1ccc(S(=O)(=O)Nc2ccc3c(c2)C(=O)N([C@@H](C)CO)C[C@H](C)[C@H](CN(C)Cc2ccc(-c4ccccc4)cc2)O3)cc1
[1]
  AC50: 5.6 µM (active)

## Cc1ccc(-c2nnc(NC(=O)c3ccco3)o2)c(C)c1
[2]
  CC50: > 40 µM (active)
[3]
  CC50: 17.5 µM (active)
[4]
  IC50: 0.81 µM (active)

## C[C@H]1CN([C@@H](C)CO)C(=O)Cc2cc(NS(=O)(=O)c3ccc(Cl)cc3)ccc2O[C@@H]1CN(C)Cc1ccc(Oc2ccccc2)cc1
[1]
  AC50: 3.33 µM (active)

## C[C@@H]1CCCCO[C@@H](CN(C)Cc2ccc(C(=O)Nc3ccccc3N)cc2)[C@@H](C)CN([C@H](C)CO)C(=O)c2cc(NS(=O)(=O)c3cccs3)ccc2O1
[1]
  AC50: 2.39 µM (active)

## COc1ccc2c3c(n(C)c2c1)[C@@H](CO)N(C(=O)Nc1ccc(F)cc1)CC31CN(Cc2ccccc2F)C1
[5]
  AC50: 5.53 µM (active)
[6]
  AC50: 24.2 µM (active)

## Cc1ccc(N2C(=O)C3CC(c4ccccc4)=C4C5C=CC(C6C(=O)N(c7ccc(C)cc7C)C(=O)C56)C4C3C2=O)c(C)c1 (configuration not stated)
[7]
  EC50: 2.49 µM (active)
[8]
  EC50: > 60 µM (not active)
[9]
  EC50: > 260 µM (inactive)
[10]
  IC50: 17.4 µM (active)
[11]
  IC50: 10.3 µM (active)

## O=C(Nc1cccc(Cl)c1N1CCCC1)c1ccc([N+](=O)[O-])o1
[2]
  CC50: 24 µM (active)
[3]
  CC50: 12.4 µM (active)
[4]
  IC50: 18.4 µM (active)

## CCCn1c(C)cc(C(=O)COC(=O)c2cccnc2O)c1C
[12]
  IC50: 15.3 µM (active)
[13]
  EC50: 0.289 µM (active)
[14]
  AC50: 5.4 µM (active)

## O=C(NNc1c(Cl)cc(Cl)cc1Cl)c1cccc([N+](=O)[O-])c1
[15]
  AC50: 3.93 µM (active)
[10]
  IC50: 10.7 µM (active)
[11]
  IC50: 6.77 µM (active)

## CCc1nc(SCC(=O)c2ccc3c(c2)OCCO3)c2ccccc2n1
[14]
  AC50: 32.8 µM (active)

## CCCc1cn(CC[C@H]2CC[C@H](NS(=O)(=O)c3ccc(-c4ccccc4)cc3)[C@@H](CO)O2)nn1
[5]
  AC50: 4.48 µM (active)
[6]
  AC50: > 39 µM (inactive)

## CC(=O)Oc1ccc(-c2cccc(C(=O)OCC(=O)N(C)c3ccccc3)c2)cc1
[16]
  IC50: 14.2 µM (not active)
[9]
  EC50: > 260 µM (inactive)

## CCn1c(CNc2ccc(Cl)cc2)nnc1SCc1ccc(C)cc1
[17]
  AC50: 8.07 µM (active)

## Cc1ccc(Cn2c(C(CO)Nc3nc(-c4ccc(F)cc4)cs3)nc3ccccc32)cc1 (configuration not stated)
[18]
  EC50: 5.27 µM (active)
[19]
  EC50: > 150 µM (not active)
[20]
  CC50: 28.5 µM (active)
[21]
  EC50: 5.23 µM (active)
